Where a SMILES comes first, the peptide text is derived from it. [ ]: non-standard residue; d: D form. The star is where a group is joined. ξ: configuration not given here. X1 = O=C(O)CC[C@H](NC(=O)N[C@@H](CCCCNC(=O)CCCCCCC(=O)*)C(=O)O)C(=O)O; DOTA = O=C(O)CN1CCN(CC(=O)O)CCN(CC(=O)*)CCN(CC(=O)O)CC1; ξF = NC(Cc1ccccc1)C(=O)O
Molecular target: PSMA (Homo sapiens, UniProt Q04609)
Assay: PSMA inhibitory activities, fluorescence-based assay (Example 3)
Type: biochemical
Procedure: PSMA inhibitory activities were determined using a fluorescence-based assay (Banerjee, Pullambhatla, Byun, et al., 2011). Enzyme inhibitory constants (Ki values) were generated using the Cheng-Prusoff conversion (Cheng and Prusoff, 1973). Sub-lines of the androgen independent PC-3 human prostate cancer xenograft were used (Banerjee, Pullambhatla, Byun, et al., 2011). Those sub-lines have been modified to express high (PC-3 PIP) or naturally produce low (PC-3 flu) levels of PSMA (Dr. Warren Heston, Cleveland Clinic, Cleveland, Ohio).

Sequence of PSMA (Q04609 whole entry): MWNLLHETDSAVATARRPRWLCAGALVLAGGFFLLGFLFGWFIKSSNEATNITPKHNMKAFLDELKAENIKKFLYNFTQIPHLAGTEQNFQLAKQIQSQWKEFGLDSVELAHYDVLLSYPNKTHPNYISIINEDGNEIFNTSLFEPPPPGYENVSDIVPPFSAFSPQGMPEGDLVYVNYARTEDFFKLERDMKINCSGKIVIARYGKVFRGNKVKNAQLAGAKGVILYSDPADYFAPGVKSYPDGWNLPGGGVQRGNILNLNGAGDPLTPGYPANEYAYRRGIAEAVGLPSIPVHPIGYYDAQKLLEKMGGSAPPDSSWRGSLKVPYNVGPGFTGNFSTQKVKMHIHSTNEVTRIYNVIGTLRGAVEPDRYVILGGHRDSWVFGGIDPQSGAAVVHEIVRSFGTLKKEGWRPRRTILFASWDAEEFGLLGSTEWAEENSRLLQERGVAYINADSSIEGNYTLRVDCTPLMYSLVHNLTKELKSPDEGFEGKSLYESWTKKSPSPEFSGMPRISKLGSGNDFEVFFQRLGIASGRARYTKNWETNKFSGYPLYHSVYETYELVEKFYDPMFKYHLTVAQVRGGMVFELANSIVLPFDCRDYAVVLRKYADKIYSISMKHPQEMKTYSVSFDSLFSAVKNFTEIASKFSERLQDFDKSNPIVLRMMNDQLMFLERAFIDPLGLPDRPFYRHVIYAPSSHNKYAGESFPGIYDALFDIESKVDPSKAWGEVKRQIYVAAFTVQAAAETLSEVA

Structure (SMILES): O=C([O-])CN1CCN(CC(=O)[O-])CCN(CC(=O)NC(Cc2ccccc2)C(=O)NC(Cc2ccccc2)C(=O)N[C@@H](CCCCNC(=O)CCCCCCC(=O)NCCCC[C@H](NC(=O)N[C@@H](CCC(=O)O)C(=O)O)C(=O)O)C(=O)O)CCN(CC(=O)[O-])CC1.[Y+3] (stereo partly shown) [^89Y-4]
- Ki: 0.36 nM

Structure (SMILES): O=C([O-])CN1CCN(CC(=O)O)CCN(CC(=O)[O-])CC(Cc2ccc(NC(=S)NCCCCNC(=O)CCCCCCC(=O)NCCCC[C@H](NC(=O)N[C@@H](CCC(=O)O)C(=O)O)C(=O)O)cc2)N(CC(=O)[O-])CC1.[Y+3] (stereo partly shown) [^89Y-6]
- Ki: 2.99 nM

Structure (SMILES): O=C([O-])CN1CCN(CC(=O)[O-])CCN(CC(=O)NC(Cc2ccccc2)C(=O)NC(Cc2ccccc2)C(=O)NC(Cc2ccccc2)C(=O)N[C@@H](CCCCNC(=O)CCCCCCC(=O)NCCCC[C@H](NC(=O)N[C@@H](CCC(=O)O)C(=O)O)C(=O)O)C(=O)O)CCN(CC(=O)[O-])CC1.[Y+3] (stereo partly shown) [^89Y-5] ({DOTA}-[ξF][ξF][ξF]K(X1)-OH)
- Ki: 0.1 nM

Structure (SMILES): O=C(O)CC[C@H](NC(=O)N[C@@H](CCCCNC(=O)CCCCCCC(=O)NCCCCNC(=S)Nc1ccc(CC2CN(CC(=O)O)CCN(CC(=O)O)CCN(CC(=O)O)CCN2CC(=O)O)cc1)C(=O)O)C(=O)O (stereo partly drawn) [Compound 6, (21S,25S)-8,15,23-trioxo-1-((4-((1,4,7,10-tetrakis(carboxymethyl)-1,4,7,10-tetraazacyclododecan-2-yl)methyl)phenyl)amino)-1-thioxo-2,7,16,22,24-pentaazaheptacosane-21,25,27-tricarboxylic acid]
- Ki: 1.8 nM
